Test system: formalin induced pain responses
Experiment: Formalin Test (formalin induced pain responses, flinches and licks)
Type: in vivo, rat
Settings: late phase 20 to 30 min after formalin
Description: Evaluation of analgesic and anti-inflammatory effects of compositions of claim 1 (See Hunskaar S and Hole K. (1987) Pain 30(1):103-14.)
In the Formalin Test a 5% solution of formaldehyde is injected subcutaneously to rat paw which produces a biphasic pain response over a test period of 60 minutes: an early phase lasting the first 5 min and a late phase lasting from 20 to 30 min after the injection of formalin. The early phase is due to a direct effect of […] on nociceptors and the late phase seems to be an inflammatory response with inflammatory pain that can be inhibited by anti-inflammatory drugs. For determining effects of compositions on these response phases two measurements were taken with three minutes interval for determining the number of flinches and licks per minute.
The treatments administered consists of (Human equivalent dose)
The above ingredients were suspended in 2.5 ml saline solution to feed by gavage one hour before injection of formalin and pain response was measured for 45 minutes. The data were collected in duplicate and average was taken.

SMILES: CC(=O)Oc1ccccc1C(=O)O [Aspirin]
- percent inhibition in formalin induced pain responses (human equivalent dose 100 mg): 30%

SMILES: O[C@H]1[C@H](O)[C@@H](O)[C@H](O)[C@@H](O)[C@H]1O [Inositol]
- percent inhibition in formalin induced pain responses (human equivalent dose 31.5 mg): 12%
- percent inhibition in formalin induced pain responses (human equivalent dose 60.2 mg): 30%
- percent inhibition in formalin induced pain responses (human equivalent dose 125 mg): 34%
- percent inhibition in formalin induced pain responses (human equivalent dose 250 mg): 40%
- percent inhibition in formalin induced pain responses (human equivalent dose 500 mg): 85%

SMILES: C=C(C)[C@@H]1CCC(C)=C[C@H]1c1c(O)cc(CCCCC)cc1O [Cannabidiol (CBD), Cannabidiol]
- percent inhibition in formalin induced pain responses (human equivalent dose 3 mg): 8%
- percent inhibition in formalin induced pain responses (human equivalent dose 6.25 mg): 40%
- percent inhibition in formalin induced pain responses (human equivalent dose 12.5 mg): 40%
- percent inhibition in formalin induced pain responses (human equivalent dose 25 mg): 90%
- percent inhibition in formalin induced pain responses (human equivalent dose 50 mg): 90%

SMILES: CC(=O)Nc1ccc(O)cc1 [Paracetamol]
- percent inhibition in formalin induced pain responses (human equivalent dose 500 mg): 50%
- percent inhibition in formalin induced pain responses (human equivalent dose 1000 mg): 70%
